{"source": "a melting point compilation (Tetko et al.; mined from patent text by program, amines drawn as free bases though some values may be those of a salt)"}
{"units": {"melting point": "°C"}}
{"compound": "N#Cc1ccc(C(O)Cc2ccc(C#N)cc2[N+](=O)[O-])cc1", "note": "(stereo not given)", "melting point": "147 to 153"}
{"compound": "C#CCOC(=O)c1ncn2c1[C@@H]1CCCN1C(=O)c1c(Cl)cccc1-2", "melting point": "213 to 214"}
{"compound": "Cn1cnc2cc(C(c3ccccc3)n3ccnc3)ccc21", "note": "(stereo not given)", "melting point": 139}
{"compound": "Cc1oc2ccccc2c(=O)c1NC(=O)C(=O)O", "melting point": 208}
{"compound": "CC(C)(C)OC(=O)CCCCCOc1ccc2sc(-c3ccccn3)nc(=O)c2c1", "melting point": "101 to 102"}
{"compound": "CCOC(=O)C1=C(C=NO)Nc2nccn2C1c1cccc([N+](=O)[O-])c1", "note": "(stereo not given)", "melting point": "229 to 230"}
{"compound": "COC(=O)CNc1cccc(C)c1", "melting point": 40}
{"compound": "CCC(C)(CC)C1=NN=C(NC(=O)c2c(OC)cccc2OC)SC1", "melting point": "134 to 140"}
{"compound": "CC(C)(C)c1cc(CCc2ccccc2NC(=O)N2CCC3(CC2)OCCO3)cc(C(C)(C)C)c1O", "melting point": "163 to 164"}
{"compound": "CC1(C)CC(c2ccc[nH]c2=O)c2cc(C#N)ccc2O1", "note": "(stereo not given)", "melting point": "174 to 176"}
{"compound": "Nc1ncnc2c1ncn2Cc1oc2ccc(Br)cc2c(=O)c1-c1ccccc1F", "melting point": "231 to 233"}
{"compound": "COc1nc(N)nc(C(F)(F)F)n1", "melting point": "161 to 164"}
{"compound": "CNC(=O)OCCN1C(=O)c2ccccc2C1=O", "melting point": "142 to 145"}
{"compound": "O=Cc1csc(NC2CC2)n1", "melting point": "124 to 127"}
{"compound": "CCCCN(CCCC)CCCOc1ccc(C(=O)c2c(-c3ccccc3)n(C)c3ccc(NS(C)(=O)=O)cc23)cc1", "melting point": 116}
{"compound": "CCc1cc(C(=O)Nc2c(C)cccc2C)no1", "melting point": 82}
{"compound": "CC(C)c1cccc(C(C)C)c1NC(=O)NCC1(c2ccccc2)CC1", "melting point": "138 to 142"}
{"compound": "O=C(/C=C/c1ccc2ccccc2c1)Nc1ccccc1-c1nnn[nH]1", "melting point": "187 to 191"}
{"compound": "CC(=O)OCc1nc2c(NCc3c(C)cccc3C)cc(Br)cc2n1C", "melting point": "188 to 190"}
{"compound": "CC1(C)CC(=O)c2c(OC3CCC3)sc(-c3cc[nH]n3)c2C1", "melting point": "202 to 204"}
{"compound": "COc1nc(S(C)(=O)=O)cnc1NS(=O)(=O)c1cccc(Cl)c1Cl", "melting point": "237 to 238"}
{"compound": "COc1ccccc1N1CCN(CCCNC2=CC(=O)N(C)S(=O)(=O)N2C)CC1", "melting point": "137 to 139"}
{"compound": "COc1nccc(-c2c(-c3ccc(F)cc3)ncn2C2CCC(=O)CC2)n1", "melting point": "212 to 214"}
{"compound": "CN1CCN(C2CC3C4CCC5CC(O)C(N6CCC7(CC6)OCCO7)CC5(C)C4CCC3(C)C2O)CC1", "note": "(stereo not given)", "melting point": "185 to 187"}
{"compound": "O=CNC1CCc2ccccc2N(C=O)C1", "note": "(stereo not given)", "melting point": 130}
{"compound": "COc1cc(Cc2cnc(NCCSCc3ncccc3Br)[nH]c2=O)ccn1", "melting point": "70 to 72"}
{"compound": "NC(=O)c1nc(-c2cccnc2O)nc2c1[nH]c(=O)n2-c1ccccc1C(F)(F)F", "melting point": "331 to 335"}
{"compound": "CCOC(=O)C=Cc1ccc(C(=O)O)cc1", "melting point": "196 to 197"}
{"compound": "CC(=O)n1ncc2c(O)ccc(C)c21", "melting point": "135 to 136"}
{"compound": "Cc1cc(C(N)=NO)ccc1[N+](=O)[O-]", "melting point": "127 to 129"}
{"compound": "CC(C)c1csc(COC(=O)NC(C(=O)NC(Cc2ccccc2)CC(O)C(Cc2ccccc2)NC(=O)OCc2cncs2)C(C)C)n1", "note": "(stereo not given)", "melting point": "62 to 64"}
{"compound": "COC(=O)C(F)(F)CC(C)C1CCC2C3CC=C4CC(OC(C)=O)CCC4(C)C3CCC12C", "note": "(stereo not given)", "melting point": 132}
{"compound": "Cc1[nH]c2ccc(S(=O)(=O)c3cc(F)cc(F)c3)cc2c1CCNC(=O)OC(C)(C)C", "melting point": "201 to 204"}
{"compound": "CC(C)(C)c1nc2cc(N3CCCCC3)c(N=C=S)cc2s1", "melting point": "112 to 114"}
{"compound": "O=C(Oc1ccccc1)Oc1c2c(nc3ccccc13)CCN(C(=O)Oc1ccccc1)CC2", "melting point": 232}
{"compound": "COCC1CCCN1S(=O)(=O)c1ccc2c(c1)C1(OCCCO1)C1=NCCCN12", "note": "(stereo not given)", "melting point": "129 to 130"}
{"compound": "CCONC(=O)c1cccc(NC(C)=C2C(=O)OC(=O)C(C(C)=O)=C2O)c1", "melting point": "162 to 164"}
{"compound": "CNC(=O)n1sc(OCc2ccc(Cl)cc2)nc1=O", "melting point": 145}
{"compound": "COc1ccc(CN2C(=O)C(NC(=O)OCc3ccccc3)C2C2COC(=O)O2)cc1OC", "note": "(stereo not given)", "melting point": "135 to 136"}
{"compound": "C=CCOc1ccc(-c2ccc(C#N)cc2)cc1", "melting point": "68 to 69"}
